Source: patent US20250011781A1, “METHODS AND COMPOSITIONS TARGETING NUCLEUS ACCUMBENS-ASSOCIATED PROTEIN-1 FOR TREATMENT OF AUTOIMMUNE DISORDERS AND CANCERS” (THE TEXAS A&M UNIVERSITY SYSTEM, priority 2021, published 2025)

How the values were obtained:
mouse CD8+ T cells = mouse CD8+ T cells cultured in CM from NAC1 KO B16-OVA cells supplemented with LA; assay type: cell-based; conditions: 2 mM or 5 mM LA
Procedure: Next, mouse CD8^+ T cells in the CM from NAC1 KO mouse B16-OVA cells were cultured and the medium was supplemented with or without 2 mM or 5 mM LA. The addition of LA reduced the production of cytokines including TNF-alpha and IFN-gamma and increased the expression of PD-1 and TIM-3 of CD8^+ T cells (FIGS. 9A-9D). […] In parallel, NAC1 KO tumor cells were transfected with an LDHA expression retroviral vector or a retroviral backbone to overexpress LDHA in NAC1 KO B16-OVA. The mouse CD8^+ T cells in the CM were cultured from NAC1 KO B16-OVA cells overexpressing LDHA (NAC1 KO LDHA OE) or an empty control (NAC1 KO Mock). The overexpression of LDHA conferred NAC1 KO mouse tumor cells with the ability to suppress the production of cytokines and increased expression of PD-1 (FIGS. 9I-9L) and apoptosis (FIGS. 9M-9P) of mouse cytotoxic CD8^+ T cells.
In vitro analysis of CD8^+ T cells. For cytotoxicity analysis, after 24 hours of activation 5×10^5 CD8^+ T cells were cultured with WT B16-OVA and NAC1 KO B16-OVA tumor cells in the ratio of 1:5 and 1:10 respectively. Cytotoxicity was measured by the CytoTox 96 Non-Radioactive Cytotoxicity Assay from Promega (#G1780, Madison, Wisconsin, USA). For cytokine expression analysis, the CD8^+ T cells were cultured with the conditional medium (CM) that was collected from WT B16-OVA and NAC1 KO B16-OVA melanoma cells for 12 hours. Before harvesting the cells, the cells were blocked with the Monensin Solution from BioLegend (#420701, San Diego, California, USA) for 4 hours. For apoptosis analysis, after 12 hours of activation the CD8^+ T cells were incubated with the CM that was collected from WT B16-OVA and NAC1 KO B16-OVA cells for 12 hours, in the absence or presence of L-LA from Sigma-Aldrich (St Louis, MI). […]
Flow Cytometric analysis. […] Stained cell populations were acquired by LSRFortessa from BD Biosciences (Franklin, New Jersey, USA), and the results were analyzed by using FlowJo software from Tree Star (Ashland, Oregon, USA).

NAC1 = target: T1, NAC1 (Homo sapiens, UniProt Q96RE7); conditions: cited from earlier work
T1 sequence (Q96RE7 1-527): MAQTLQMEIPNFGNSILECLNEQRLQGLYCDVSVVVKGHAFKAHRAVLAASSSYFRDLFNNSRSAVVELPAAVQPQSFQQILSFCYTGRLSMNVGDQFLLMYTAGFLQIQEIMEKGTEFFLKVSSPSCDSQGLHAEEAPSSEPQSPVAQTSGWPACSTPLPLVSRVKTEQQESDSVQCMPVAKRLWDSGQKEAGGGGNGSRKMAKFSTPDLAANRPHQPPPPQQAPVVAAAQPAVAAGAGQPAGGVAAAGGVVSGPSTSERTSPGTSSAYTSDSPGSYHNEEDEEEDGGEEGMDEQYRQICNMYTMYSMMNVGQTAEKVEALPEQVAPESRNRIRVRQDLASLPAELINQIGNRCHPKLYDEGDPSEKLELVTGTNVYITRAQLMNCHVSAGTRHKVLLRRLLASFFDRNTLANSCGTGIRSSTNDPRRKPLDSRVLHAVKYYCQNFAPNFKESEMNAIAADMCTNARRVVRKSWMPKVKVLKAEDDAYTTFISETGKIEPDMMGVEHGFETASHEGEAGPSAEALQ

tumor growth = conditions: cited from earlier work
Tregs = assay: treatment of Tregs with pro-inflammatory cytokines; assay type: cell-based, mouse
Procedure: T cell culture. T cells were cultured in 48-well plates containing 1 ml RPMI 1640 (Invitrogen) with 10% fetal calf serum (Omega Scientific, CA). T cell isolation kits including mouse CD4^+ (#130-104-454), CD8a^+ (#130-104-075) and CD4^+ CD25^+ Treg (#130-091-041), T cell activation/expansion kit (#130-093-627) and Treg expansion kit (#130-095-925) were purchased from the Miltenyi Biotec (Auburn, CA). Recombinant mouse TGF-β (#763104), IL-10 (#575106), and TNF-α (#575206) were obtained from BioLegend (San Diego, CA).

CC(O)C(=O)O (stereo not drawn) [LA, lactic acid]
apoptosis determined by Annexin V staining (mouse CD8+ T cells): higher percentage of apoptosis
expression of PD-1 and TIM-3 of CD8+ T cells (mouse CD8+ T cells): increased
production of cytokines including TNF-alpha and IFN-gamma (mouse CD8+ T cells): reduced

CC(C)(C)c1ccc(OCC(=O)NCCNC(=O)COc2ccc(C(C)(C)C)cc2)cc1 [NIC3]
NAC1 homodimerization (NAC1): can interrupt NAC1 homodimerization
antitumor activity (tumor growth): shows antitumor activity

TNF-α
FoxP3 and acetylated FoxP3 in Tregs (Tregs): evident downregulation
NAC1 expression in Tregs (Tregs): robust upregulation

B1: IL-10: recombinant mouse cytokine from BioLegend (protein, UniProt P18893 19-178, looked up)
Interleukin-10: SRGQYSREDNNCTHFPVGQSHMLLELRTAFSQVKTFFQTKDQLDNILLTDSLMQDFKGYLGCQALSEMIQFYLVEVMPQAEKHGPEIKEHLNSLGEKLKTLRMRLRRCHRFLPCENKSKAVEQVKSDFNKLQDQGVYKAMNEFDIFINCIEAYMMIKMKS
FoxP3 and acetylated FoxP3 in Tregs (Tregs): evident downregulation
NAC1 expression in Tregs (Tregs): robust upregulation
